Assay results from patent US5270312A, “Substituted piperazines as central nervous system agents” (Warner-Lambert Company, priority 1991, dated 1993).

Experiments:
[1] = tested on: locomotor activity in mice; assay: Inhibition of locomotor activity in mice; format: in vivo; settings: Mus musculus, IP
Method: (§1) The compounds of Formula I are valuable dopaminergic agents. […] Thus, the compounds of Formula I were tested for their ability to inhibit locomotor activity in mice according to the assay described by J. R. McLean, et al, Pharmacology, Biochemistry and Behavior, Volume 8, pages 97-99 (1978); for their ability to inhibit [^3 H]-spiroperidol binding in a receptor assay described by D. Grigoriadis and P. Seeman, Journal of Neurochemistry, Volume 44, pages 1925-1935 (1985); and for their ability to inhibit dopamine synthesis in rats according to the protocol described by J. R. Walters and R. H. Roth, Naunyn-Schmiedeberg's Archives of Pharmacology, Volume 296, pages 5-14 (1976). The above test methods are incorporated herein by reference. The data in the table show the dopaminergic activity of representative compounds of Formula 1.

[2] = molecular target: [^3 H]-spiroperidol binding (receptor assay); assay: Inhibition of [^3 H]spiroperidol binding, receptor assay
Method: as §1

[3] = tested on: brain dopamine synthesis in rats; assay: Reversal of brain dopamine synthesis in rats (inhibition of dopamine synthesis); format: in vivo; settings: 10 mg/kg, IP
Method: as §1

Row | IC50 [2] | Compound | ED50 [1] | % Reversal of Brain Dopamine Synthesis in Rats [3]
1 | 177 nM | C(#Cc1cnc2ccccc2c1)CCN1CCN(c2ccccn2)CC1 [Example 1, 3-[4-[4-(2-Pyridinyl)-1-piperazinyl]-1-butynyl]-quinoline] | 1.5 mg/kg | 
2 | 2330 nM | Fc1ccc(N2CCN(CCC#Cc3cccnc3)CC2)cc1 [Example 2, 1-(4-Fluorophenyl)-4-[4-(3-pyridinyl)-3-butynyl]-piperazine] | 4.7 mg/kg | 20%
3 | 6530 nM | C(#Cc1cccnc1)CCN1CCN(c2ccccn2)CC1 [Example 3, 1-(2-Pyridinyl)-4-[4-(3-pyridinyl)-3-butynyl]-piperazine] | 2.2 mg/kg | 
4 | > 10000 nM | O=[N+]([O-])c1ccc(C#CCCN2CCN(c3ccccn3)CC2)nc1 [Example 5, 1-[4-(5-Nitro-2-pyridinyl)-3-butynyl]-4-(2-pyridinyl)piperazine] | 14.1 mg/kg | 
5 | 2500 nM | O=[N+]([O-])c1ccc(C#CCCN2CCN(c3ccccn3)CC2)cc1 [Example 6, 1-[4-(4-Nitrophenyl)-3-butynyl]-4-(2-pyridinyl)-piperazine] | 7.7 mg/kg | 
6 | 1900 nM | Nc1ccc(C#CCCN2CCN(c3ccccn3)CC2)nc1 [Example 7, 6-[4-[4-(2-Pyridinyl)-1-piperazinyl]-1-butynyl]-3-pyridinamine] | 0.35 mg/kg | 24%
7 | 611 nM | Nc1ccc(C#CCCN2CCN(c3ccccn3)CC2)cc1 [Example 8, 4-[4-[4-(2-Pyridinyl)-1-piperazinyl]-1-butynyl]-benzenamine] | 0.56 mg/kg | 63%
